Columns and labels:
[1] = tested on: primary dopaminergic neurons; assay: MPP+ toxicity in primary mesencephalic neuronal cultures, TH+ neurite length; type: cell-based; details: 10 μM, 24 h
Procedure: Primary […] neurons were treated with 10 μM MPP+ alone or co-treated with 100-300 nM mito-Met for 24 h. […] FIG. 7B depicts quantification of neurite length of TH+ neurons.
Primary mesencephalic neuronal cultures were treated for 24 h with 10 μM MPP^+ alone or co-treated with 100 and 300 nM mito-Met, dopaminergic neurotoxicity was assessed by TH immunocytochemistry (FIG. 7A) and quantification of neurite length of TH^+ neurons (FIG. 7B). MPP^+ reduced the neurite length of TH-immunoreactive neurons to almost 45% of the vehicle-treated group, indicating significant dopaminergic neurotoxicity.

Tfam = Tfam protein and mRNA expression; details: N27 cells, 10-100 μM, 24 h
[2] = diabetic patients; cited from earlier work
[3] = tested on: complex I in the mitochondrial respiratory chain; details: cited from earlier work
AMPK = AMPK activation, phosphorylation at T172; type: cell-based; details: N27 cells, 10-100 μM, 24 h
Description: In this example we assessed whether mito-Met alters mitochondrial biogenesis in a dopaminergic cell model.

Structure (SMILES)	neurite length of TH-immunoreactive neurons, of the vehicle-treated group [1] [%]	protein levels of Tfam (Tfam)	tolerated daily doses [2]	effect on mitochondrial complex-1 activity ([3]; at approximately 0.1 mM)	inhibition of complex I in the mitochondrial respiratory chain ([3]; in vitro, millimolar concentrations)	phosphorylation of AMPK Thr172 (AMPK)
C[n+]1ccc(-c2ccccc2)cc1 [MPP^+]	~45	–	–	–	–	–
CN(C)C(=N)N=C(N)N [metformin, Metformin]	–	upregulated	2-3 grams	does not affect	inhibit	significantly increased

Reference: patent US9956233B2 (priority 2015, dated 2018)
